# Legend:
# [1] = target: T1, BRD4 short isoform (Homo sapiens, UniProt O60885); experiment: BRD4 degradation assay (Western blot, MDA-MB-468 cells), short isoform; assay type: cell-based; conditions: MDA-MB-468, n = 2
# T1 construct: endogenous in cells; host or cells: MDA-MB-468
# Protocol: (§1) BRD4 Degradation Assay Protocol Summary
# (§2) MDA-MB-468 cells were cultured routinely in DMEM supplemented with 10% heat inactivated FBS and 1% Penicillin-Streptomycin (Thermofisher Scientific) at 37° C. 5% CO2. Cells were seeded in 6-well plates at 4*10^5 cells per well and left to adhere overnight. Example compounds were solubilised in DMSO to make 10 mM stocks followed by serial dilutions in DMSO to 200× final concentration. These were further diluted in culture media to give 20× treatment stocks before addition to cells to a 1× final concentration. Cells were then incubated at 37° C. 5% CO2 for 24 or 48 hours after which cells were lysed in RIPA buffer supplemented with cOmplete Mini Protease Inhibitor Cocktail and PhosSTOP™ (Roche). Lysates were clarified by centrifugation at 13,000 RPM for 10 minutes and the protein concentration of the resulting supernatants determined by BCA assay (ThermoFisher Scientific) as per manufacturer's instructions. Lysates were denatured and reduced in NuPAGE LDS sample buffer and sample reducing agent before 10 μg was loaded onto NuPAGE […] Tris-Acetate Mini Protein Gels (ThermoFisher Scientific). Protein was transferred to nitrocellulose membranes using a Trans-Blot Turbo Transfer System (Bio-Rad) before blocking for 1 hour in Intercept (TBS) Blocking Buffer (Li-Cor). Membranes were then incubated overnight with BRD4 (ab128874; Abcam) and α-tubulin (T6074; Sigma-Aldrich) antibodies diluted 1:2000 and 1:16,000 respectively in Tris-buffered saline 0.05% Tween 20 (TBS-T). The following day, membranes were washed with TBS-T before addition of anti-rabbit IRDye 800 CW and anti-mouse IRDye 680LT secondary antibodies (LiCor) (diluted 1:10,000 in TBS-T) for one hour. Membranes were then washed with TBS-T before imaging using a LICOR Odyssey Infrared Imaging System with Image Studio Ver 5.2 software (LiCor). Densitometry analysis was carried out in the LiCor image studio software where BRD4 signal was normalised to α-tubulin signal. Percentage degradation of BRD4 relative to the DMSO treated negative control was calculated as: =100−(signal of interest/signal of control sample*100). BRD4 degradation by dBET1 was used as positive control for each plate. Data obtained for the percentage degradation of BRD4 upon treatment with the Example compounds 1-6 and Comparative Example compounds 1-3 at 24 hour incubation are shown in Table 2 and with 48 hour incubation are shown in Table 3.
# [2] = target: T2, BRD4 long isoform (Homo sapiens, UniProt O60885); experiment: BRD4 degradation assay (Western blot, MDA-MB-468 cells), long isoform; assay type: cell-based; conditions: MDA-MB-468, n = 2
# T2 construct: endogenous in cells; host or cells: MDA-MB-468
# Protocol: as §1, §2
# [3] = tested on: NRF2 mediated gene NAD(P)H:quinone acceptor oxidoreductase 1 (NQO1) mRNA in BEAS-2B cells; experiment: Beas2B NQO1 mRNA cell based assay; conditions: Homo sapiens, 24 h, vs vehicle (0.1% DMSO), read-out: EC50 (increase in NQO1 mRNA)
# Protocol: Beas2B NQO1 mRNA Cell Based Assay
# The up-regulation of the NRF2 mediated gene NAD(P)H:quinone acceptor oxidoreductase 1 (NQO1) was measured using the following assay method: BEAS-2B cells (ATCC CRL-9609) were plated in 96-well clear plates at 20,000 cells/well in 75 μL of cell culture media and incubated overnight (37° C., 5% CO2). On day 2, 25 μL of compound or controls were added to the cells for 24 h. On day 3, the medium was aspirated from the plate and the Cells-to-CT™ 1-Step TaqMan® Kit (Ambion A25603) was used to perform expression analysis directly from cultured cells without RNA purification according to the manufacturer's instructions.
# Briefly, cells were washed with ice cold PBS and 22.5 μL of room-temperature DNase/Lysis solution was added to the cells and incubated at room temperature for 5 minutes. To stop the reaction, 2.25 μL of stop solution was added to the cell lysate. The samples were diluted 1:5 using nuclease free water and 2.5 μL transferred into the PCR plate. Real-time PCR was performed using the C-1000 Thermal Cycler (Bio-Rad) using human beta actin as the internal control. The cDNA was amplified with a specific primer for NQO1 using the 1-step RT-PCR master mix (Ambion Cells-to-CT™ 1-Step TaqMan® Kit A25603). The primers/probes sets that were used for amplification of cDNA were obtained from TaqMan Gene Expression Assays (Applied Biosystems). The comparative CT (ΔΔCT) relative quantification method was used to calculate the relative mRNA level of the target gene NQO1 as described in the Applied Biosystems Chemistry Guide. The data are expressed as an increase in target gene mRNA compared to vehicle (0.1% DMSO) control and the EC50 values were determined by fitting the data to a four parameter logistic fit using XLfit or XE Runner within ActivityBase.
"% Mean Degradation of BRD4 ([1]; 24 h, 0.1 μM)","% Mean Degradation of BRD4 ([1]; 24 h, 1 μM)","% Mean Degradation of BRD4 ([1]; 24 h, 5 μM)","% Mean Degradation of BRD4 ([1]; 48 h, 0.1 μM)","% Mean Degradation of BRD4 ([1]; 48 h, 1 μM)","% Mean Degradation of BRD4 ([1]; 48 h, 5 μM)","% Mean Degradation of BRD4 ([2]; 24 h, 0.1 μM)","% Mean Degradation of BRD4 ([2]; 24 h, 1 μM)","% Mean Degradation of BRD4 ([2]; 24 h, 5 μM)","% Mean Degradation of BRD4 ([2]; 48 h, 0.1 μM)","% Mean Degradation of BRD4 ([2]; 48 h, 1 μM)","% Mean Degradation of BRD4 ([2]; 48 h, 5 μM)",SMILES,EC50 [3]
18%,42%,43%,−11%,24%,28%,11%,18%,5%,−39%,−27%,−47%,"Cc1sc2c(c1C)C(c1ccc(Cl)cc1)=N[C@@H](CC(=O)NCC(=O)NCCNC(=O)[C@@]1(C)CCCC[C@H]1C(=O)N1CCc3c(Cl)ccc(OCc4nnn(C)c4C)c3[C@H]1CN1CC3(CC3)CC1=O)c1nnc(C)n1-2 [Comparative Example 1, (1S,2R)-2-((S)-5-Chloro-8-((1,5-dimethyl-1H-1,2,3-triazol-4-yl)methoxy)-1-((6-oxo-5-azaspiro[2.4]heptan-5-yl)methyl)-1,2,3,4-tetrahydroisoquinoline-2-carbonyl)-N-(2-(2-(2-((S)-4-(4-chlorophenyl)-2,3,9-trimethyl-6H-thieno[3,2-f][1,2,4]triazolo[4,3-a][1,4]diazepin-6-yl)acetamido)acetamido)ethyl)-1-methylcyclohexane-1-carboxamide, reference compound]",212 nM
−6%,9%,26%,−15%,13%,20%,−33%,3%,14%,−26%,−61%,−124%,"Cc1sc2c(c1C)C(c1ccc(Cl)cc1)=N[C@@H](CC(=O)NCCOCCNC(=O)[C@@]1(C)CCCC[C@H]1C(=O)N1CCc3c(Cl)ccc(OCc4nnn(C)c4C)c3[C@H]1CN1CC3(CC3)CC1=O)c1nnc(C)n1-2 [Comparative Example 2, (1S,2R)-2-((S)-5-chloro-8-((1,5-dimethyl-1H-1,2,3-triazol-4-yl)methoxy)-1-((6-oxo-5-azaspiro[2.4]heptan-5-yl)methyl)-1,2,3,4-tetrahydroisoquinoline-2-carbonyl)-N-(2-(2-(2-((S)-4-(4-chlorophenyl)-2,3,9-trimethyl-6H-thieno[3,2-f][1,2,4]triazolo[4,3-a][1,4]diazepin-6-yl)acetamido)ethoxy)ethyl)-1-methylcyclohexane-1-carboxamide, reference compound]",75 nM
5%,31%,18%,23%,32%,−4%,34%,45%,49%,13%,30%,20%,"Cc1sc2c(c1C)C(c1ccc(Cl)cc1)=N[C@@H](CC(=O)NCCOCCOCCNC(=O)[C@@]1(C)CCCC[C@H]1C(=O)N1CCc3c(Cl)ccc(OCc4nnn(C)c4C)c3[C@H]1CN1CC3(CC3)CC1=O)c1nnc(C)n1-2 [Comparative Example 3, (1S,2R)-2-((S)-5-Chloro-8-((1,5-dimethyl-1H-1,2,3-triazol-4-yl)methoxy)-1-((6-oxo-5-azaspiro[2.4]heptan-5-yl)methyl)-1,2,3,4-tetrahydroisoguinoline-2-carbonyl)-N-(2-(2-(2-(2-((S)-4-(4-chlorophenyl)-2,3,9-trimethyl-6H-thieno[3,2-f][1,2,4]triazolo[4,3-a][1,4]diazepin-6-yl)acetamido)ethoxy)ethoxy)ethyl)-1-methylcyclohexane-1-carboxamide, reference compound]",68 nM
84%,95%,97%,71%,92%,93%,77%,93%,91%,78%,93%,94%,CNC(=O)[C@@]1(C)CCCC[C@H]1C(=O)N1CCc2c(Cl)ccc(OCc3nnn(CCNC(=O)CNC(=O)C[C@@H]4N=C(c5ccc(Cl)cc5)c5c(sc(C)c5C)-n5c(C)nnc54)c3C)c2[C@H]1CN1CC2(CC2)CC1=O [Example 2],458 nM
31%,87%,87%,25%,77%,79%,23%,80%,75%,14%,67%,60%,"Cc1sc2c(c1C)C(c1ccc(Cl)cc1)=N[C@@H](CC(=O)NCC(=O)NCCOCc1c(COc3ccc(Cl)c4c3[C@@H](CN3CC5(CC5)CC3=O)N(C(=O)[C@@H]3CCCC[C@]3(C)C(=O)O)CC4)nnn1C)c1nnc(C)n1-2 [Example 3, (1S,2R)-2-((S)-5-Chloro-8-((5-((2-(2-(2-((S)-4-(4-chlorophenyl)-2,3,9-trimethyl-6H-thieno[3,2-f][1,2,4]triazolo[4,3-a][1,4]diazepin-6-yl)acetamido)acetamido)ethoxy)methyl)-1-methyl-1H-1,2,3-triazol-4-yl)methoxy)-1-((6-oxo-5-azaspiro[2.4]heptan-5-yl)methyl)-1,2,3,4-tetrahydroisoquinoline-2-carbonyl)-1-methylcyclohexane-1-carboxylic acid]",280 nM

# — patent US20240424112A1, “TETRAHYDROISOQUINOLINE COMPOUNDS THAT ARE KEAP1 BINDERS” (C4X Discovery Limited, priority 2021, published 2024)
